Source: ChEMBL document CHEMBL1141451, “Crotonkinins A and B and related diterpenoids from Croton tonkinensis as anti-inflammatory and antitumor agents” (J Nat Prod, 2007)
In brackets after ≈: the same amount, converted by molar mass.

Key:
[1] = system: A549; assay: Cytotoxicity against human A549 cells; format: functional, cell-based
[2] = system: MCF7; assay: Cytotoxicity against human MCF7 cells; format: functional, cell-based
[3] = system: KB; assay: Cytotoxicity against human KB cells; format: functional, cell-based
[4] = Cytotoxicity against human KB-VIN cells; format: functional, cell-based; conditions: KBVIN
[5] = system: BV-2; assay: Inhibition of NADPH oxidase in mouse BV2 cells assessed as NOX-dependent ROS production at 50 uM; format: cell-based
[6] = Inhibition of nitric oxide synthase in mouse BV2 cells assessed as inhibition of LPS-induced NO production; format: cell-based; conditions: BV-2
[7] = system: A549; assay: Cytotoxicity against human A549 cells at 20 ug/ml; format: functional
[8] = system: MCF7; assay: Cytotoxicity against human MCF7 cells at 20 ug/ml; format: functional
[9] = system: KB; assay: Cytotoxicity against human KB cells at 20 ug/ml; format: functional
[10] = Cytotoxicity against human KB-VIN cells at 20 ug/ml; format: functional; conditions: KBVIN
[11] = Inhibition of NADPH oxidase in mouse BV2 cells assessed as NOX-dependent ROS production; conditions: BV-2

`C=C1C(=O)[C@]23C[C@H]1CC[C@H]2[C@]1(C)CCCC(C)(C)[C@H]1C[C@H]3O` gave an EC50 [1] of 4.77 µg/mL (≈ 15.8 µM), an EC50 [2] of 1.47 µg/mL (≈ 4.86 µM) and an EC50 [3] of 0.79 µg/mL (≈ 2.61 µM). The EC50 [4] was 0.74 µg/mL (≈ 2.45 µM), the inhibition [5] was 23.1% and the IC50 [6] was 4 µM.
For `C=C1C(=O)[C@@]23CC[C@@H]4[C@@](C)(COC(C)=O)CCC[C@@]4(C)[C@@H]2CC[C@@H]1C3`, the EC50 [1] was 6.56 µg/mL (≈ 19 µM), the EC50 [2] was 6.11 µg/mL (≈ 17.7 µM) and the EC50 [3] was 3.75 µg/mL (≈ 10.9 µM). For the same compound, the EC50 [4] was 2.84 µg/mL (≈ 8.24 µM).
Work on `CC(=O)OC[C@@]1(C)CCC[C@]2(C)[C@@H]1C[C@H](O)[C@@]13C[C@@H](CC[C@@H]21)[C@H](C)C3=O` yielded an inhibition at 20 µg/mL [7] of less than 50%, an inhibition at 20 µg/mL [8] of less than 50% and an inhibition at 20 µg/mL [9] of less than 50%. The inhibition at 20 µg/mL [10] was less than 50%, the inhibition [5] was 9.5% and the IC50 [6] was 42.5 µM.
Work on `C=C1C(=O)[C@@]23CC[C@@H]4[C@@](C)(CO)CCC[C@@]4(C)[C@@H]2CC[C@@H]1C3` yielded an EC50 [1] of 6.52 µg/mL (≈ 21.6 µM), an EC50 [2] of 4.31 µg/mL (≈ 14.2 µM) and an EC50 [3] of 1.47 µg/mL (≈ 4.86 µM). The EC50 [4] was 1.31 µg/mL (≈ 4.33 µM).
For `COC(=O)[C@@H](N)CCCNC(=N)N[N+](=O)[O-]` [L-NAME], the IC50 [6] was 20.1 µM.
For `C=C1C(=O)[C@@]23[C@H](O)C[C@@H]4C(C)(C)CC[C@@H](OC(C)=O)[C@@]4(C)[C@@H]2CC[C@@H]1[C@H]3O`, the EC50 [1] was 3.03 µg/mL (≈ 8.05 µM), the EC50 [2] was 0.94 µg/mL (≈ 2.5 µM) and the EC50 [3] was 0.91 µg/mL (≈ 2.42 µM). It also gave an EC50 [4] of 0.78 µg/mL (≈ 2.07 µM), an inhibition [5] of 29.4% and an IC50 [6] of 1.3 µM.
With `c1ccc2c(c1)[I+]c1ccccc1-2` [DIPHENYLENEIODONIUM] the inhibition [5] was 94.3% and the IC50 [11] was 16 µM.
Work on `C=C1C(=O)[C@]23C[C@H]1CC[C@H]2[C@]1(C)CCC[C@](C)(CO)[C@H]1C[C@H]3O` yielded an EC50 [1] of 3.96 µg/mL (≈ 12.4 µM), an EC50 [2] of 0.98 µg/mL (≈ 3.08 µM) and an EC50 [3] of 0.87 µg/mL (≈ 2.73 µM). The EC50 [4] was 0.82 µg/mL (≈ 2.57 µM), the inhibition [5] was 20.6% and the IC50 [6] was 1.4 µM.
For `C=C1C(=O)[C@]23C[C@H]1CC[C@H]2[C@]1(C)CCC[C@](C)(COC(C)=O)[C@H]1C[C@H]3O`, the EC50 [1] was 1.26 µg/mL (≈ 3.5 µM), the EC50 [2] was 0.65 µg/mL (≈ 1.8 µM) and the EC50 [3] was 0.71 µg/mL (≈ 1.97 µM). The EC50 [4] was 0.61 µg/mL (≈ 1.69 µM), the inhibition [5] was 24.8% and the IC50 [6] was 1.3 µM.
For `C=C1C(=O)[C@@]23[C@H](O)C[C@@H]4C(C)(C)CCC[C@@]4(C)[C@@H]2CC[C@@H]1[C@H]3O`, the EC50 [1] was 1.45 µg/mL (≈ 4.55 µM), the EC50 [2] was 0.75 µg/mL (≈ 2.36 µM) and the EC50 [3] was 0.64 µg/mL (≈ 2.01 µM). It also gave an EC50 [4] of 0.63 µg/mL (≈ 1.98 µM), an inhibition [5] of 29.4% and an IC50 [6] of 1.2 µM.
Compound `C=C1C[C@]23C(=O)C[C@H]4C(C)(C)CCC[C@]4(C)[C@H]2CC[C@H]1[C@@H]3O` [CROTONKININ A] has an inhibition at 20 µg/mL [7] of less than 50%, an inhibition at 20 µg/mL [8] of less than 50% and an inhibition at 20 µg/mL [9] of less than 50%. The inhibition at 20 µg/mL [10] was less than 50%, the inhibition [5] was 11.2% and the IC50 [6] was 46.2 µM.
With `C=C1C(=O)[C@@]23[C@H](O)C[C@@H]4[C@@](C)(COC(C)=O)CCC[C@@]4(C)[C@@H]2CC[C@@H]1[C@H]3O` the EC50 [1] was 2.78 µg/mL (≈ 7.38 µM), the EC50 [2] was 1.98 µg/mL (≈ 5.26 µM) and the EC50 [3] was 0.93 µg/mL (≈ 2.47 µM). The EC50 [4] was 0.88 µg/mL (≈ 2.34 µM).
Compound `C=C1C(=O)[C@@]23CC[C@H]4[C@@](C)(CCC[C@]4(C)C(=O)O)[C@@H]2CC[C@@H]1C3` has an EC50 [1] of 3.91 µg/mL (≈ 12.4 µM), an EC50 [2] of 2.69 µg/mL (≈ 8.5 µM) and an EC50 [3] of 1.04 µg/mL (≈ 3.29 µM). It also gave an EC50 [4] of 1.08 µg/mL (≈ 3.41 µM), an inhibition [5] of 14.2% and an IC50 [6] of 2.6 µM.
